According to ChEMBL document CHEMBL5137028, “Progress and Challenges in Targeting the SARS-CoV-2 Papain-like Protease” (J Med Chem, 2022):

How the values were obtained:
[1] = test system: SARS-CoV-2; assay: Antiviral activity against SARS-CoV-2 infected in African green monkey Vero cells assessed as viral growth inhibition incubated for 1 hr by crystal violet staining based plaque reduction assay; type: functional, organism-based; details: Severe acute respiratory syndrome coronavirus 2, Vero
[2] = test system: SARS-CoV-2; assay: Antiviral activity against SARS-CoV-2 infected in African green monkey Vero cells assessed as viral growth inhibition by cell culture based assay; type: functional, organism-based; details: Severe acute respiratory syndrome coronavirus 2, Vero
[3] = target: Replicase polyprotein 1ab (Severe acute respiratory syndrome coronavirus 2) (UniProt P0DTD1); assay: Inhibition of SARS-CoV-2 papain-like protease nsp3 (745 to 1061 residues) expressed in Escherichia coli
[4] = test system: HeLa; assay: Cytotoxicity against human HeLa cells expressing hACE2 assessed as cell viability treated for 72 hrs by Cell Titer Glo assay; type: functional
[5] = test system: SARS-CoV-2; assay: Antiviral activity against SARS-CoV-2 infected in human HeLa cells expressing hACE2 assessed as inhibition of viral replication at MOI of 0.3 treated for 46 hrs by fluorescence microscopy; type: functional, organism-based; details: Severe acute respiratory syndrome coronavirus 2, HeLa
[6] = test system: SARS-CoV-2; assay: Antiviral activity against SARS-CoV-2 infected in African green monkey Vero cells assessed as viral growth inhibition measured after 72 hrs by LDH assay; type: functional, organism-based; details: Severe acute respiratory syndrome coronavirus 2, Vero
[7] = Cytotoxicity against African green monkey Vero E6 cells assessed as cell viability treated for 24 to 48 hrs by prestoblue staining based assay; type: toxicity, Vero C1008; details: chlorocebus sabaeus, time 24-48 hrs
[8] = Stability in human liver microsome assessed as half life; type: ADME; details: liver microsomes
[9] = Stability in human liver S9 fraction assessed as half life; type: ADME, subcellular
[10] = Cytotoxicity against African green monkey Vero E6 cells assessed as cell viability treated for 24 hrs by CCK8 assay; type: toxicity, cell-based, Vero C1008; details: chlorocebus sabaeus
[11] = test system: Middle East respiratory syndrome-related coronavirus; assay: Antiviral activity against MERS-CoV assessed as viral growth inhibition; type: functional, organism-based
[12] = test system: SARS-CoV-2; assay: Antiviral activity against SARS-CoV-2 infected in human A549 cells expressing ACE2 assessed as viral growth inhibition; type: functional, organism-based; details: Severe acute respiratory syndrome coronavirus 2, A549
[13] = test system: A549; assay: Cytotoxicity against human A549 cells expressing ACE2 assessed as cell viability; type: functional
[14] = Antiviral activity against HCoV-OC43 assessed as viral growth inhibition; type: functional, Human coronavirus OC43
[15] = Selectivity index, ratio of CC50 for human A549 cells expressing ACE2 to EC50 for SARS-CoV-2 infected in human A549 cells expressing ACE2; type: toxicity, cell-based; details: read-out: Ratio CC50/EC50
[16] = test system: SARS-CoV-2; assay: Antiviral activity against SARS-CoV-2 infected in African green monkey Vero cells assessed as viral growth inhibition; type: functional, organism-based; details: Severe acute respiratory syndrome coronavirus 2, Vero
[17] = Selectivity index, ratio of CC50 for African green monkey Vero cells to EC50 for SARS-CoV-2 infected in African green monkey Vero cells; type: toxicity; details: read-out: Ratio CC50/EC50
[18] = Cytotoxicity against African green monkey Vero cells assessed as cell viability; type: toxicity, cell-based; details: chlorocebus sabaeus
[19] = test system: SARS-CoV-2; assay: Antiviral activity against SARS-CoV-2 USA-WA1/2020 isolate infected in human Caco2 expressing hACE2 cells assessed as viral growth inhibition at MOI of 0.1 treated for 24 hrs by fluorescence microscopy; type: functional, organism-based; details: Severe acute respiratory syndrome coronavirus 2, USA-WA1/2020 isolate, Caco-2, 24 h
[20] = test system: SARS-CoV-2; assay: Antiviral activity against SARS-CoV-2 USA-WA1/2020 infected in African green monkey Vero E6 cells assessed as viral growth inhibition pretreated for 1 hr followed by infection at MOI of 0.1 measured after 48 hrs by Cell Titer Glo assay; type: functional, organism-based; details: Severe acute respiratory syndrome coronavirus 2, USA-WA1/2020, Vero C1008
[21] = Cytotoxicity against African green monkey Vero E6 cells assessed as cell viability; type: toxicity, cell-based, Vero C1008; details: chlorocebus sabaeus

Cc1ccc(N)cc1C(=O)N[C@H](C)c1cccc2ccccc12
EC50 [1]: 3.18 µM
EC50 [2]: 32.6 µM

COC(=O)/C=C/CNC(=O)CNC(=O)[C@H](CN)NC(=O)[C@H](CCc1nc2ccccc2s1)NC(C)=O
INH [3]: 100 µM

C[C@H](c1cccc2ccccc12)N1CCC(C(=O)NCc2cc(F)cc(NC(=O)N3CCN(C)CC3)c2)CC1
CC50 [4]: > 10 µM
EC50 [5]: 0.18 µM

COC(=O)/C=C/CNC(=O)CNC(=O)[C@H](CN)NC(=O)[C@H](CCc1ccc(O)cc1)NC(C)=O
INH [3]: 100 µM

COc1cc(CNC(=O)C2CCN(C(C)c3cccc4ccccc34)CC2)ccn1 (stereo not drawn)
EC50 [6]: < 11 µM

Cc1cccc2c3c(ccc12)C1=C(C(=O)C3=O)[C@@H](C)CO1 [DIHYDROTANSHINONE I]
EC50 [2]: 8.15 µM

O=C1c2c(O)cccc2[C@@H]([C@@H]2O[C@H](CO)[C@@H](O)[C@H](O)[C@H]2O)c2cc(CO)cc(O)c21
CC50 [7]: > 100 µM

COC(=O)/C=C/C(=O)NNC(=O)CCc1ccccc1C(=O)N[C@H](C)c1cccc2ccccc12
half-life [8]: 50 min
half-life [9]: 60 min

O=C1c2c(O)cccc2[C@H]([C@@H]2O[C@H](CO)[C@@H](O)[C@H](O)[C@H]2O)c2cc(CO)cc(O)c21
CC50 [7]: > 100 µM

C[C@H]1COC2=C1C(=O)C(=O)c1c2ccc2c1CCCC2(C)C [CRYPTOTANSHINONE]
CC50 at 24 h [10]: > 300 µM
EC50 [2]: > 200 µM

Cc1coc2c1C(=O)C(=O)c1c-2ccc2c(C)cccc12 [TANSHINONE I]
CC50 at 24 h [10]: > 200 µM

Cc1cc2nc3c(=O)[nH]c(=O)nc-3n(C)c2cc1C=O
EC50 [2]: 20 µM

Nc1ccc2cc3ccc(N)cc3nc2c1 [PROFLAVINE]
IC50 [11]: 0.021 µM
EC50 [12]: 0.086 µM
CC50 [13]: 3.1 µM
IC50 [14]: 0.105 µM
selectivity ratio [15]: 36
EC50 [16]: 0.064 µM
selectivity ratio [17]: 53
CC50 [18]: 3.4 µM

Cc1coc2c1C(=O)C(=O)c1c-2ccc2c1CCCC2(C)C [TANSHINONE IIA]
EC50 [2]: > 200 µM

C[C@H](c1cccc2ccccc12)N(C)Cc1c[nH]c2ccccc12
EC50 [19]: 12 µM

C[C@@H](NC(=O)c1ccccc1CCC(=O)NNC(=O)CCl)c1cccc2ccccc12
EC50 [20]: 34 µM

Nc1nc2nc[nH]c2c(=S)[nH]1 [THIOGUANINE]
CC50 [21]: 35.5 µM
